Values quoted from earlier work in patent publication US20070293674A1, “Novel Saperconazole Crystalline Forms and Related Processes, Pharmaceutical Compositions and Methods” (TRANSFORM PHARMACEUTICALS, INC., priority 2004, published 2007).

What was measured:
[1] = piperazine of itraconazole
[2] = free base

pKa value for the piperazine [1]: 3.7
solubility in water [2]: only very sparingly soluble in water
SMILES: CCC(C)n1ncn(-c2ccc(N3CCN(c4ccc(OC[C@H]5CO[C@](Cn6cncn6)(c6ccc(Cl)cc6Cl)O5)cc4)CC3)cc2)c1=O (mixture of isomers) [itraconazole, 4-[4-[4-[4-[[2-(2,4-dichlorophenyl)-2-(1H-1,2,4-triazol-1-ylmethyl)-1,3-dioxolan-4-yl]methoxy]phenyl]-1-piperazinyl]phenyl]-2,4-dihydro-2-(1-methylpropyl)-3H-1,2,4-triazol-3-one]
